26 compounds from patent US6806276B2, “2-oxoquinoline compounds and pharmaceutical uses thereof” (Japan Tobacco Inc., priority 1999, dated 2004) can be followed below.

The Ki is the dissociation constant of the complex between target and ligand, obtained from inhibition or displacement.

Read-outs that look alike come from different tables or passages of the source.

The target of assay [1] is T1, human central type cannabinoid receptor (hCB1) (Homo sapiens, UniProt P21554).
T1 construct: expressed in transfected cells; host or cells: CHO cells
T1 sequence (P21554 whole entry): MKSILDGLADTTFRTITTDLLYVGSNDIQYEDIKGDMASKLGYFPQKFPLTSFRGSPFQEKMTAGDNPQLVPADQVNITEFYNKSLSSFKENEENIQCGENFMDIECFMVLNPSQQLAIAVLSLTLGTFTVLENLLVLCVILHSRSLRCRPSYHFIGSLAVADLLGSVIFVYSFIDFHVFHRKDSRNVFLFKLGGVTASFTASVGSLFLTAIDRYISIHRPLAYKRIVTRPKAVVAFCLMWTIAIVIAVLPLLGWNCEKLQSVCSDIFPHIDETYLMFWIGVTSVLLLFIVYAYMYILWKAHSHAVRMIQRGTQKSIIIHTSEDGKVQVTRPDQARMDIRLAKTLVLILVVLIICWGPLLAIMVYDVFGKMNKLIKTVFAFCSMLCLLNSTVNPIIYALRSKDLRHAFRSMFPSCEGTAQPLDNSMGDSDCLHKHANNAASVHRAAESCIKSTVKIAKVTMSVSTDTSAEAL
Briefly: Binding assay (in vitro), [3H]Win55212-2 displacement, membrane fractions of human CB1-CHO. To be noted: hCB1 expressed in CHO cells, [3H]Win55212-2 2 nM, 30° C. 90 minutes.
Description: (§1) Membrane fractions of human central type cannabinoid receptor (human CB1-CHO, hereinafter called hCB1) and human peripheral type cannabinoid receptor (human CB2-CHO, hereinafter called hCB2) expressed in CHO cells were used as samples. The reference material (hCB1: 20 μg/ml, hCB2: 5 μg/ml), labeled ligand ([^3H]Win55212-2, 2 nM) and unlabeled ligand Win55212-2 or test compound were added to a 24-well round bottom plate, and the plate was incubated at 30° C. for 90 minutes. 50 mM Tris-HB55 containing 0.2% BSA was used as an assay buffer. After incubation, the mixture was filtered (Packard, Unifilter 24GF/B) and dried, and then a scintillation solution (Packard, Microsint-20) was added thereto to determine the radioactivity of the sample (Packard, Top count A9912V). Nonspecific binding was determined by the addition of excessive amount of Win55212-2 (10 μM), and specific binding was calculated by subtracting the nonspecific binding from total binding determined by the addition of the labeled ligand only. The test compound was dissolved in DMSO to make the final concentration in DMSO to be 0.1%. IC50 value was determined from the proportion of the bound test compound in the specific binding, and K1 value of the test compound was calculated from the ICso value and Kd value of [^3H]Win55212-2. K1 value for the central type receptors/K1 value for peripheral type receptors (C/S) was also calculated as an indicator of the selectivity of the test compound for peripheral type receptors.

In assay [2] the target is T2, human peripheral type cannabinoid receptor (hCB2) (Homo sapiens, UniProt P34972).
T2 construct: expressed in transfected cells; host or cells: CHO cells
T2 sequence (P34972 whole entry): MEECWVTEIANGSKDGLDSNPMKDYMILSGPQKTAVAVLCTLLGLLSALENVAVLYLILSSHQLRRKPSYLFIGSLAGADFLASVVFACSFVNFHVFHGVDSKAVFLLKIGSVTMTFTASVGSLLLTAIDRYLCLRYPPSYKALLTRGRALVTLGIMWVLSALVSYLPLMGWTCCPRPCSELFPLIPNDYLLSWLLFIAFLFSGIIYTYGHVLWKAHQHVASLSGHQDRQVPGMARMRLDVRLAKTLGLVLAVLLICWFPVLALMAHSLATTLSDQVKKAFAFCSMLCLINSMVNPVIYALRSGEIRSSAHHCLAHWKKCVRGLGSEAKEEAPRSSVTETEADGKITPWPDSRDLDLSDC
Description: Binding assay (in vitro), [3H]Win55212-2 displacement, membrane fractions of human CB2-CHO. To be noted: for Ki: hCB2 expressed in CHO cells, [3H]Win55212-2 2 nM, 30° C. 90 minutes.
Description: as §1

Setting [3] is: read-out: Ki value Central type receptor (C).
[4] abbreviates: Ki value Peripheral type receptor (S).
Setting [5] is: indicator of selectivity for peripheral type receptors.
Setting [6] is: read-out: Ki value Peripheral type receptor (S).
The mark [7] stands for this setting: Ki value Central type receptor (C).

`CCCCCOc1cc2cc(C(=O)OC)c(=O)[nH]c2cc1OC` [Example 1-2, 7-methoxy-2-oxo-6-pentyloxy-1,2-dihydroquinoline-3-carboxylic acid methyl ester]: the Ki amounted to 3670 nM in assay [1] (setting [3]) and 0.014 nM in assay [2] (setting [4]). Moreover, the “C/S (Ki central type receptors / Ki peripheral type receptors)” value in assay [2] (setting [5]) turned out to be 262202.
In the same order, the values of `CCCCCOc1cc2cc(C(=O)OC)c(=O)n(C)c2cc1OC` [Example 1-4, 1-methyl-7-methoxy-2-oxo-6-pentyloxy-1,2-dihydroquinoline-3-carboxylic acid methyl ester] are 1630 nM, 4.49 nM and 362.
With `CCCCCOc1c(OC)ccc2cc(C(=O)O)c(=O)[nH]c12` [Example 2-1, 7-methoxy-2-oxo-8-pentyloxy-1,2-dihydroquinoline-3-carboxylic acid], the Ki in assay [1] (setting [3]) was found to be 4330 nM; in assay [2] (setting [6]) it was 8.9 nM. Moreover, the “C/S (Ki central type receptors / Ki peripheral type receptors)” value in assay [2] (setting [5]) was determined as 487.
Regarding `CCCCOc1c(OC)ccc2cc(C(=O)O)c(=O)[nH]c12` [Example 2-2, 8-butoxy-7-methoxy-2-oxo-1,2-dihydroquinoline-3-carboxylic acid], the results for the Ki in assay [1] (setting [3]) and in assay [2] (setting [6]) were 3250 nM and 0.77 nM, respectively. For the same compound, the “C/S (Ki central type receptors / Ki peripheral type receptors)” value in assay [2] (setting [5]) came to 42172.
In the same order, the values of `CCCOc1c(OC)ccc2cc(C(=O)O)c(=O)[nH]c12` [Example 2-4, 7-methoxy-2-oxo-8-propoxy-1,2-dihydroquinoline-3-carboxylic acid] are 905 nM, 0.032 nM and 28273.
Regarding `CCCCCOc1cc2cc(C(=O)O)c(=O)[nH]c2cc1OC` [Example 2-5, 7-methoxy-2-oxo-6-pentyloxy-1,2-dihydroquinoline-3-carboxylic acid], the Ki in assay [1] (setting [3]) amounted to 434 nM; in assay [2] (setting [4]), 0.2 nM.
Regarding `CCCCCOc1c(OC)ccc2cc(C(=O)O)c(=O)n(C)c12` [Example 2-6, 1-methyl-7-methoxy-2-oxo-8-pentyloxy-1,2-dihydroquinoline-3-carboxylic acid], the inhibitory constant (Ki) was 770 nM in assay [1] (setting [3]) and 0.13 nM in assay [2] (setting [4]). In assay [2] (setting [5]), the “C/S (Ki central type receptors / Ki peripheral type receptors)” value came to 5923.
For `CCCCCOc1cc2cc(C(=O)O)c(=O)n(C)c2cc1OC` [Example 2-7, 1-methyl-7-methoxy-2-oxo-6-pentyloxy-1,2-dihydroquinoline-3-carboxylic acid] the same measures were 381 nM, 0.42 nM and 908.
As for `CCCCCOc1c(OC)ccc2cc(C(=O)NCCc3ccncc3)c(=O)[nH]c12` [Example 3-1, 7-methoxy-2-oxo-8-pentyloxy-1,2-dihydroquinoline-3-carboxylic acid (2-pyridine-4-ylethyl)amide], the Ki was found to be 49 nM in assay [1] (setting [7]) and 0.13 ± 0.05 nM in assay [2] (setting [4]). In assay [2], the “C/S (Ki central type receptors / Ki peripheral type receptors)” value worked out at 372.
In the case of `CCOc1c(OC)ccc2cc(C(=O)NCCc3ccncc3)c(=O)[nH]c12` [Example 3-6, 8-ethoxy-7-methoxy-2-oxo-1,2-dihydroquinoline-3-carboxylic acid (2-pyridine-4-ylethyl)amide], the Ki in assay [1] (setting [3]) is 609 nM.
Consider `CCCCCOc1c(OC)ccc2cc(C(=O)NCCc3ccc(O)cc3)c(=O)[nH]c12` [Example 3-7, 7-methoxy-2-oxo-8-pentyloxy-1,2-dihydroquinoline-3-carboxylic acid [2-(4-hydroxyphenyl)ethyl]amide], for which the values for the Ki in assay [1] (setting [7]) and in assay [2] (setting [4]) were 72 nM and 0.48 nM, respectively. Besides, in assay [2] (setting [5]), the “C/S (Ki central type receptors / Ki peripheral type receptors)” value was determined as 150.
For the compound `CCCCCOc1c(OC)ccc2cc(C(=O)NCCc3ccc(F)cc3)c(=O)[nH]c12` [Example 3-8, 7-methoxy-2-oxo-8-pentyloxy-1,2-dihydroquinoline-3-carboxylic acid [2-(4-fluorophenyl)ethyl]amide], the inhibition constant (Ki) in assay [1] (setting [7]) came to 81 nM; in assay [2] (setting [4]) it was 0.019 nM. Also, the “C/S (Ki central type receptors / Ki peripheral type receptors)” value in assay [2] (setting [5]) is recorded as 4275.
On to `CCCCOc1c(OC)ccc2cc(C(=O)NCCc3ccncc3)c(=O)[nH]c12` [Example 3-16, 8-butoxy-7-methoxy-2-oxo-1,2-dihydroquinoline-3-carboxylic acid (2-pyridine-4-ylethyl)amide], for which the inhibition constant (Ki) came out at 208 nM in assay [1] (setting [3]) and 0.01 nM in assay [2] (setting [4]). Also, the “C/S (Ki central type receptors / Ki peripheral type receptors)” value in assay [2] (setting [5]) amounted to 20805.
In the same order, the values of `CCOc1c(OC)ccc2cc(C(=O)NCCc3ccc(F)cc3)c(=O)[nH]c12` [Example 3-18, 8-ethoxy-7-methoxy-2-oxo-1,2-dihydroquinoline-3-carboxylic acid [2-(4-fluorophenyl)ethyl]amide] are 1750 nM, 7.1 nM and 247.
Consider `CCCCCOc1c(OC)ccc2cc(C(=O)NCCc3ccccc3F)c(=O)[nH]c12` [Example 3-19, 7-methoxy-2-oxo-8-pentyloxy-1,2-dihydroquinoline-3-carboxylic acid [2-(2-fluorophenyl)ethyl]amide], for which the figures for the Ki in assay [1] (setting [7]) and in assay [2] (setting [4]) were 49 nM and 0.18 nM, respectively. Moreover, in assay [2] (setting [5]), the “C/S (Ki central type receptors / Ki peripheral type receptors)” value is 272.
Consider `CCCCCOc1c(OC)ccc2cc(C(=O)NCCc3cccc(F)c3)c(=O)[nH]c12` [Example 3-20, 7-methoxy-2-oxo-8-pentyloxy-1,2-dihydroquinoline-3-carboxylic acid [2-(3-fluorophenyl)ethyl]amide], for which the inhibition constant Ki came to 78 nM in assay [1] (setting [7]) and 0.41 nM in assay [2] (setting [4]). Further, the “C/S (Ki central type receptors / Ki peripheral type receptors)” value in assay [2] stood at 191.
As to `CCCCCOc1c(OC)ccc2cc(C(=O)NCCc3ccc(O)c(OC)c3)c(=O)[nH]c12` [Example 3-21, 7-methoxy-2-oxo-8-pentyloxy-1,2-dihydroquinoline-3-carboxylic acid [2-(4-hydroxy-3-methoxyphenyl)ethyl]amide], the inhibition constant (Ki) in assay [1] (setting [3]) amounted to 162 nM; in assay [2] (setting [4]), 0.97 nM. For the same compound, the “C/S (Ki central type receptors / Ki peripheral type receptors)” value in assay [2] (setting [5]) was 167.
Take `CCCCCOc1c(OC)ccc2cc(C(=O)NCCc3ccccc3)c(=O)[nH]c12` [Example 3-23, 7-methoxy-2-oxo-8-pentyloxy-1,2-dihydroquinoline-3-carboxylic acid (2-phenylethyl)amide]: the Ki in assay [1] (setting [3]) turned out to be 39 nM; in assay [2] (setting [6]) it was 0.2 nM. Also, the “C/S (Ki central type receptors / Ki peripheral type receptors)” value in assay [2] (setting [5]) was found to be 194.
For `CCCCCOc1c(OC)ccc2cc(C(=O)NCc3ccc(F)cc3)c(=O)[nH]c12` [Example 3-25, 7-methoxy-2-oxo-8-pentyloxy-1,2-dihydroquinoline-3-carboxylic acid (4-fluorobenzyl)amide], the inhibition constant (Ki) was 444 nM in assay [1] (setting [3]) and 1.29 nM in assay [2] (setting [4]). For the same compound, the “C/S (Ki central type receptors / Ki peripheral type receptors)” value in assay [2] (setting [5]) is 344.
For the compound `COc1ccc2cc(C(=O)NCCc3ccc(F)cc3)c(=O)[nH]c2c1OC` [Example 3-31, 7,8-dimethoxy-2-oxo-1,2-dihydroquinoline-3-carboxylic acid [2-(4-fluorophenyl)ethyl]amide], the Ki in assay [1] (setting [3]) is 159 nM; in assay [2] (setting [6]), 0.16 nM. In addition, the “C/S (Ki central type receptors / Ki peripheral type receptors)” value in assay [2] (setting [5]) came to 995.
Consider `CCCCCOc1cc2cc(C(=O)NCCc3ccc(F)cc3)c(=O)[nH]c2cc1OC` [Example 3-32, 7-methoxy-2-oxo-6-pentyloxy-1,2-dihydroquinoline-3-carboxylic acid [2-(4-fluorophenyl)ethyl]amide], for which the inhibitory constant (Ki) in assay [1] (setting [3]) was 2400 nM; in assay [2] (setting [4]), 0.036 nM. Moreover, the “C/S (Ki central type receptors / Ki peripheral type receptors)” value in assay [2] (setting [5]) was 66604.
In the same order, the values of `CCCCCOc1cc2cc(C(=O)NCc3ccc4c(c3)OCO4)c(=O)[nH]c2cc1OC` [Example 3-33, 7-methoxy-2-oxo-6-pentyloxy-1,2-dihydroquinoline-3-carboxylic acid (3,4-methylenedioxybenzyl)amide] are 273 nM, 1.06 nM and 258.
`CCCCCOc1cc2cc(C(=O)NCCN3CCOCC3)c(=O)[nH]c2cc1OC` [Example 3-34, 7-methoxy-2-oxo-6-pentyloxy-1,2-dihydroquinoline-3-carboxylic acid (2-morpholinoethyl) amide]: the Ki in assay [2] (setting [4]) amounted to 0.011 nM. Also, the “C/S (Ki central type receptors / Ki peripheral type receptors)” value in assay [2] (setting [5]) stood at 15672.
On to `CCOc1c(OC)ccc2cc(C(=O)NCc3ccc4c(c3)OCO4)c(=O)[nH]c12` [Example 3-35, 8-ethoxy-7-methoxy-2-oxo-1,2-dihydroquinoline-3-carboxylic acid (3,4-methylenedioxybenzyl) amide], for which the Ki came out at 409 nM in assay [1] (setting [3]) and 0.053 nM in assay [2] (setting [4]). Further, the “C/S (Ki central type receptors / Ki peripheral type receptors)” value in assay [2] (setting [5]) was 7713.
In the same order, the values of `CCCCCOc1c(OC)ccc2cc(C(=O)NCCc3ccc(F)cc3)c(=O)n(C)c12` [Example 3-36, 1-methyl-7-methoxy-2-oxo-8-pentyloxy-1,2-dihydroquinoline-3-carboxylic acid [2-(4-fluorophenyl)ethyl]amide] are 183 nM, 0.021 nM and 8695.
In the case of `CCCCCOc1c(OC)ccc2cc(C(=O)NCCc3ccc(O)cc3)c(=O)n(C)c12` [Example 3-41, 1-methyl-7-methoxy-2-oxo-8-pentyloxy-1,2-dihydroquinoline-3-carboxylic acid [2-(4-hydroxyphenyl)ethyl]amide], the values for the Ki in assay [1] (setting [7]) and in assay [2] (setting [4]) were 62 nM and 0.35 nM, respectively. Besides, the “C/S (Ki central type receptors / Ki peripheral type receptors)” value in assay [2] (setting [5]) amounted to 176.
